Measured values from paper PMC11173529, “Structure–Activity Relationship Studies in a Series of Xanthine Inhibitors of SLACK Potassium Channels” (Molecules, 2024).

Experiments:
mouse WT SLACK = target: T1, mouse WT SLACK (Mus musculus, UniProt Q6ZPR4); experiment: Whole-cell APC in CHO cells stably expressing mouse WT SLACK; assay type: cell-based; settings: for IC50: APC, CHO cells; for Imax: maximum inhibition at 30 µM standardized to VU0606170 (100%)
T1 construct: expressed in transfected cells; host or cells: CHO
T1 sequence (Q6ZPR4 1-1224): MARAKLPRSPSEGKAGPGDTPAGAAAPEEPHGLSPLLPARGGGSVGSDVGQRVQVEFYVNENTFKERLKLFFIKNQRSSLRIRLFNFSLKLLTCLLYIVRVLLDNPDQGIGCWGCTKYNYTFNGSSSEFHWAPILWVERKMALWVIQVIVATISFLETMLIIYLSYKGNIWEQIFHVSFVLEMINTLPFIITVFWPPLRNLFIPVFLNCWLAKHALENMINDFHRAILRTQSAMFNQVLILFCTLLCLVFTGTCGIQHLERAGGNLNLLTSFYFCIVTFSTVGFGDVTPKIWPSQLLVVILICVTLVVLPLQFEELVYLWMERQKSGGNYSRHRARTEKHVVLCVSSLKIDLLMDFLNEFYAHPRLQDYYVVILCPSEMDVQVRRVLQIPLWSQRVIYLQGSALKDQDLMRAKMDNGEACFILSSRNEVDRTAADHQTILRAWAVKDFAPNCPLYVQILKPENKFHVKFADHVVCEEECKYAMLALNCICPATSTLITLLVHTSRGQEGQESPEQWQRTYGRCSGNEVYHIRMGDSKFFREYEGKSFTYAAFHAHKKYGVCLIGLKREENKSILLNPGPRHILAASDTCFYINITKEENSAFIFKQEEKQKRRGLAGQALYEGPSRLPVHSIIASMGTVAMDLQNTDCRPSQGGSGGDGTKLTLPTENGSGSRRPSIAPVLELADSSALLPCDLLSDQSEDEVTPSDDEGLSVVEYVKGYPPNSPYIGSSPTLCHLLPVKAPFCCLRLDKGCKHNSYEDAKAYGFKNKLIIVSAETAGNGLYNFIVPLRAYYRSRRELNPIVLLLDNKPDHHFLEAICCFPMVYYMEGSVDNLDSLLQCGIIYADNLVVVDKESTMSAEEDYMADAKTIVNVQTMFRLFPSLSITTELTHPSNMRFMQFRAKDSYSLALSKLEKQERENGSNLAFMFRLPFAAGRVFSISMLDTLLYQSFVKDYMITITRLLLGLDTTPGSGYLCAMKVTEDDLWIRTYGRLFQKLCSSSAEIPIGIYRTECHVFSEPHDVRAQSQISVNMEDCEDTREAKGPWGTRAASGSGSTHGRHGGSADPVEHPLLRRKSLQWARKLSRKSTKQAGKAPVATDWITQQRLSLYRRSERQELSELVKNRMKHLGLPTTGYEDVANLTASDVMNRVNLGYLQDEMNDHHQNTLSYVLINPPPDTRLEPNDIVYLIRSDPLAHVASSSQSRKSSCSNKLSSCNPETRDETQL
Source text: Development of a useful SLACK inhibitor in vivo tool will require potent activity at the corresponding mouse ortholog as studies in appropriate mouse models will be critical. Thus, we evaluated analogs 32 and 48 in our APC assay using CHO cells stably expressing mouse WT SLACK (Table 6). […] We were also eager to evaluate the same compounds with regard to their ability to inhibit clinically relevant GOF SLACK mutants. Both the C-terminus A934T mutant and transmembrane G288S mutant have been associated with clinical cases of EIMFS [3, 7].
Automated patch-clamp recording was performed with a SyncroPatch 768 PE system (Nanion, Munich, Germany) as previously described. Whole-cell recordings were performed at room temperature. Cells were harvested by first washing with PBS without Mg^2+ or Ca^2+ (Gibco, Billings, MT, USA) to remove cell culture media, followed by dissociation with TryPLE (Gibco, Billings, MT, USA). Cells were then resuspended and diluted to 100,000 cells/mL in external solution. External solution contained 105 mM NaCl, 4 mM KCl, 1 mM MgCl2, 5 mM CaCl2, 10 mM HEPES, and 40 mM N-Methyl-D-glucamine chloride, titrated to pH of 7.4 and osmolarity of 300 mOsm/kg; internal solution contained 70 mM NaCl, 70 mM KF, 10 mM KCl, 5 mM EGTA, and 5 mM HEPES, titrated to a pH of 7.2 and osmolarity of 295 mOsm/kg.
The APC protocol was set as follows: Cells were held at a […] of −80 mV for 100 ms, then a ramp protocol was performed from −100 mV to 80 mV at 0.4 mV/ms, followed by holding the cell at −80 mV for another 100 ms, then steps were performed at −20 mV, 0 mV, +20 mV, +40 mV, and +60 mV for 100 ms of each step. Whole-cell currents were measured at 0 mV and normalized to current after external buffer addition. […] To obtain the concentration-response relationship graphs and IC50 values, we take the median value of the last 7 current amplitude values obtained for each set of data points collected for a given concentration at a particular step.

WT hSLACK = WT hSLACK (Homo sapiens, UniProt Q5JUK3); experiment: Whole-cell automated patch-clamp (APC) in CHO cells stably expressing WT hSLACK; assay type: cell-based; settings: range across the three variants, APC; read-out: IC50 values across WT, A934T, and G288S SLACK
Chain of WT hSLACK (Q5JUK3 whole entry): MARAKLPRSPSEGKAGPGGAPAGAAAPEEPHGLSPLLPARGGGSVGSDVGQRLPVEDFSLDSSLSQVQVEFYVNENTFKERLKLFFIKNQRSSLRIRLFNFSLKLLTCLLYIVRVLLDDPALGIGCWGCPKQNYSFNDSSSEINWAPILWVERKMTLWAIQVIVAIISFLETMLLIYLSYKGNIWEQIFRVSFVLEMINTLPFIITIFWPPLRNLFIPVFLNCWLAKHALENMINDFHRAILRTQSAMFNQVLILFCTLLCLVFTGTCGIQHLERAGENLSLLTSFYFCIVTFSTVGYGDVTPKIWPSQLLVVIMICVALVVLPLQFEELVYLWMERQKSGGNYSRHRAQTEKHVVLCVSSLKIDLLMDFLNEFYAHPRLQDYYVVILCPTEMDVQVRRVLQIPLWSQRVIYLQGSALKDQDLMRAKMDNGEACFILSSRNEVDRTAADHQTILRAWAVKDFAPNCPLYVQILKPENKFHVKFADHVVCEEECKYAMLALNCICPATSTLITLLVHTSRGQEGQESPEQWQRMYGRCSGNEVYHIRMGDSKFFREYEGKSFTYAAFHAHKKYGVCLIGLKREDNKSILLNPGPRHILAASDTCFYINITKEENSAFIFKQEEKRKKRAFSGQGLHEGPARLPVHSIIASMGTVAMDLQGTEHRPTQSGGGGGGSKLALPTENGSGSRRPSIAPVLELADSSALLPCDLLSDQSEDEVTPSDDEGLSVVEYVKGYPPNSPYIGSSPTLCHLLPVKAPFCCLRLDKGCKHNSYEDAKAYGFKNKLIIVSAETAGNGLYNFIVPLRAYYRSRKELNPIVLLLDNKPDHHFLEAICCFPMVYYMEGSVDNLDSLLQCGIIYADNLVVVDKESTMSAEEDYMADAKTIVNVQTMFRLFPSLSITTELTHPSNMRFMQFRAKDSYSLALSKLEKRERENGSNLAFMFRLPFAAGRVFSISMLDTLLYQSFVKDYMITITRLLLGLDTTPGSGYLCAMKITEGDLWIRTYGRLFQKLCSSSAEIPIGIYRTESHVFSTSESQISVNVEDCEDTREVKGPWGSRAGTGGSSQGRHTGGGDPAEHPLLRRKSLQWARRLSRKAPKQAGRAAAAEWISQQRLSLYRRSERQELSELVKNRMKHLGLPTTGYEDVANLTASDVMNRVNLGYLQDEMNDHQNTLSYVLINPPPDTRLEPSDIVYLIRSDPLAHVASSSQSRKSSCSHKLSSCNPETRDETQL
Summary of the method: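 CHO-K1 cells stably expressing human SLACK were whole-cell recorded at room temperature with Na/NMDG external solution pH 7.4 and KF-based internal pH 7.2. Concentrations 0.125–30 μM in half-log steps, ≥3 cells each; ramp and step protocol from −80 mV holding, current at 0 mV normalized to post-buffer current, IC50 from median of last 7 amplitudes.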

Structure (SMILES) | IC50 (mouse WT SLACK) [nM] | Imax (mouse WT SLACK) [%] | IC50 (WT hSLACK) [nM]
CN(Cc1cccc(F)c1)c1nc2c(c(=O)n(Cc3ccccc3)c(=O)n2C)n1C [Analog 48] | 1300 | 100 | 
CCCCN(Cc1ccc(F)cc1)c1nc2c(c(=O)n(Cc3cccc(OC)c3)c(=O)n2C)n1C [Analog 80] |  |  | 590 to 710
COc1cccc(Cn2c(=O)c3c(nc(N(C)Cc4ccccc4)n3C)n(C)c2=O)c1 [Analog 32] | 1400 | 100 | 
